In patent US8415486B2, “IAP inhibitors” (TetraLogic Pharmaceuticals Corp., priority 2009, dated 2013):

Assays:
cIAP-1 BIR-3 = molecular target: T1, cIAP-1 BIR-3 (Homo sapiens, UniProt Q13490); experiment: Fluorescence polarization binding to cIAP-1 BIR-3 with labeled peptide AbuRPF-K(5-Fam)-NH2; conditions: 40 nM BIR3, 5 nM labeled peptide, reported as ranges, read-out: KD (c-IAP-1 BIR3)
T1 construct: 40 nM of the respective IAP BIR3
Method: (§1) The binding affinities of the compounds are reported as a KD value (μM). Briefly, various concentrations of test peptides were mixed with 5 nM of the fluorescently labeled peptide (i.e., a mutated N-terminal Smac peptide—AbuRPF-K(5-Fam)-NH2) and 40 nM of the respective IAP BIR3 for 15 min at RT in […] of 0.1M Potassium Phosphate buffer, pH 7.5 containing 100 mg/ml bovine g-globulin. Following incubation, the polarization values (mP) were measured on a Victor2V (available from PerkinElmer Life Sciences) using a 485 nm excitation filter and a 520 nm emission filter. The reported binding affinities (KD values) are supplied as ranges (A=<0.1 μM, B=0.1 μM to 1 μM, C=>1 μM to 10 μM, D=>10 μM).

[1] = test system: ovarian cancer cell line, SK-OV-3; experiment: SK-OV-3 cell growth inhibition (MTT, 72 hrs); type: cell-based; conditions: Homo sapiens, concentration giving 50% cell survival, reported as ranges
Method: Compounds of the invention also were tested for their ability to inhibit the growth of an ovarian cancer cell line, SK-OV-3. A known assay previously used for measuring cell growth (as described in Hansen, M. B., Nielsen, S. E., and Berg, K. (1989) J. Immunol. Methods 119, 203-210 and incorporated herein by reference in its entirety) was used. Briefly, SK-OV-3 cells are seeded in 96-well plates in McCoy's medium containing 10% fetal bovine serum albumin (5,000 per well) and incubated overnight at 37° C. The next day, test compounds are added at various concentrations (0.003-10 μM) and the plates are incubated at 37° C. for an additional 72 hrs. This incubation time was considered to be optimal for measuring inhibitory effects of the different compounds tested. 50 microliters of 5 mg/mL MTT reagent is added to each well and the plates are incubated at 37° C. for another three (3) hours. At the end of the three (3) hour incubation period, 50 microliters of DMSO is added to each well to dissolve cells and the optical density (OD) of the wells is measured with a microplate reader (Victor^2 1420, Wallac, Finland) at 535 nm. Cell survival (CS) was calculated using the following equation: CS=(OD treated well/mean OD control wells)×100%.
The CC50 (reported in the following tables), is defined as the drug concentration that results in 50% cell survival (CS), and is derived by calculating the point where the dose-response curve crosses the 50% CS point using GraphPad Prism. The reported CC50 values are supplied as ranges (A=<0.1 μM, B=0.1 μM to 1 μM, C=>1 μM to 10 μM, D=>10 μM).

XIAP BIR-3 = molecular target: T2, XIAP BIR-3 (Homo sapiens, UniProt P98170); experiment: Fluorescence polarization binding to XIAP BIR-3 with labeled peptide AbuRPF-K(5-Fam)-NH2; conditions: 40 nM BIR3, 5 nM labeled peptide, reported as ranges
T2 construct: 40 nM of the respective IAP BIR3
Method: as §1

T1 sequence (Q13490 253-363 limits assumed): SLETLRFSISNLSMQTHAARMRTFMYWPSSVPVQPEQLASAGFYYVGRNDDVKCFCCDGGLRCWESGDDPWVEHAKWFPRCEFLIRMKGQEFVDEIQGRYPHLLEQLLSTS
T2 sequence (P98170 241-356 limits assumed): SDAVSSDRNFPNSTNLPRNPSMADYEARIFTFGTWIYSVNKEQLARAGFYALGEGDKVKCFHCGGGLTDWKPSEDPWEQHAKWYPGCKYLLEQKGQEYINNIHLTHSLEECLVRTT

| Compound | Kd (cIAP-1 BIR-3) | CC50 [1] | Kd (XIAP BIR-3) |
| --- | --- | --- | --- |
| CNC(=O)N1C[C@H](Oc2ccc(F)c(F)c2)[C@@H]2[C@H]1CCN2C(=O)[C@@H](NC(=O)[C@H](C)NC)C(C)(C)C [Example 23, 3-(3,4-Difluoro-phenoxy)-4-[3,3-dimethyl-2-(2-methylamino-propionylamino)-butyryl]-hexahydro-pyrrolo[3,2-b]pyrrole-1-carboxylic acid methylamide] | < 0.1 µM | < 0.1 µM | < 0.1 µM |
| CN[C@@H](C)C(=O)N[C@H](C(=O)N1CC[C@@H]2[C@H]1[C@@H](Oc1ccc(F)cc1)CN2C(=O)NC(C)C)C(C)(C)C [Example 29, 4-[3,3-Dimethyl-2-(2-methylamino-propionylamino)-butyryl]-3-(4-fluoro-phenoxy)-hexahydro-pyrrolo[3,2-b]pyrrole-1-carboxylic acid isopropylamide] | < 0.1 µM | < 0.1 µM | < 0.1 µM |
| CN[C@@H](C)C(=O)N[C@H](C(=O)N1CC[C@@H]2[C@H]1[C@@H](O)CN2C(=O)NC(C)C)C(C)(C)C [Example 61, 4-[3,3-Dimethyl-2-(2-methylamino-propionylamino)-butyryl]-3-hydroxy-hexahydro-pyrrolo[3,2-b]pyrrole-1-carboxylic acid isopropylamide] | 0.1 to 1 µM | 1 to 10 µM | > 10 µM |
| CN[C@@H](C)C(=O)N[C@H](C(=O)N1CC[C@@H]2[C@H]1[C@@H](OCc1ccc(F)cc1)CN2c1ncccn1)C(C)(C)C [Example 45, (S)—N—((S)-1-((3aR,6S,6aS)-6-(4-fluorobenzyloxy)-4-(pyrimidin-2-yl)hexahydropyrrolo[3,2-b]pyrrol-1(2H)-yl)-3,3-dimethyl-1-oxobutan-2-yl)-2-(methylamino)propanamide] | < 0.1 µM | < 0.1 µM | 0.1 to 1 µM |
| CN[C@@H](C)C(=O)N[C@H](C(=O)N1CC[C@@H]2[C@H]1[C@@H](OC(=O)NC(C)C)CN2C(=O)NC(C)C)C(C)(C)C [Example 54, Isopropyl-carbamic acid 4-[3,3-dimethyl-2-(2-methylamino-propionylamino)-butyryl]-1-isopropylcarbamoyl-octahydro-pyrrolo[3,2-b]pyrrol-3-yl ester] | < 0.1 µM | 1 to 10 µM | 1 to 10 µM |
| CN[C@@H](C)C(=O)N[C@H](C(=O)N1CC[C@@H]2[C@H]1[C@@H](Oc1ccc(F)cc1)CN2S(C)(=O)=O)[C@@H](C)OC [Example 11, N-{1-[6-(4-Fluoro-phenoxy)-4-methanesulfonyl-hexahydro-pyrrolo[3,2-b]pyrrole-1-carbonyl]-2-methoxy-propyl}-2-methylamino-propionamide] | < 0.1 µM | < 0.1 µM | < 0.1 µM |
| CN[C@@H](C)C(=O)N[C@H](C(=O)N1CC[C@@H]2[C@H]1[C@@H](OC(=O)N(C)c1ccccc1)CN2C(=O)NC(C)C)C(C)(C)C [Example 50, Methyl-phenyl-carbamic acid 4-[3,3-dimethyl-2-(2-methylamino-propionylamino)-butyryl]-1-isopropylcarbamoyl-octahydro-pyrrolo[3,2-b]pyrrol-3-yl ester] | < 0.1 µM | 0.1 to 1 µM | 0.1 to 1 µM |
| CN[C@@H](C)C(=O)N[C@H](C(=O)N1CC[C@@H]2[C@H]1[C@@H](Oc1ccccc1)CN2C(C)=O)C(C)C [Example 2, N-[1-(4-Acetyl-6-phenoxy-hexahydro-pyrrolo[3,2-b]pyrrole-1-carbonyl)-2-methyl-propyl]-2-methylamino-propionamide] | < 0.1 µM | < 0.1 µM | 1 to 10 µM |
| CN[C@@H](C)C(=O)N[C@H](C(=O)N1CC[C@@H]2[C@H]1[C@@H](Oc1ccc(F)cc1)CN2S(C)(=O)=O)C1CCCCC1 [Example 10, N-{1-Cyclohexyl-2-[6-(4-fluoro-phenoxy)-4-methanesulfonyl-hexahydro-pyrrolo[3,2-b]pyrrol-1-yl]-2-oxo-ethyl}-2-methylamino-propionamide] | < 0.1 µM | < 0.1 µM | < 0.1 µM |
| CNC(=O)N1C[C@H](OCc2ccc(F)cc2)[C@@H]2[C@H]1CCN2C(=O)[C@@H](NC(=O)[C@H](C)NC)C(C)(C)C [Example 36, 4-[3,3-Dimethyl-2-(2-methylamino-propionylamino)-butyryl]-3-(4-fluoro-benzyloxy)-hexahydro-pyrrolo[3,2-b]pyrrole-1-carboxylic acid methylamide] | < 0.1 µM | < 0.1 µM | 0.1 to 1 µM |
| CN[C@@H](C)C(=O)N[C@H](C(=O)N1CC[C@@H]2[C@H]1[C@@H](Oc1ccccc1)CN2S(C)(=O)=O)C(C)C [Example 3, N-[1-(4-Methanesulfonyl-6-phenoxy-hexahydro-pyrrolo[3,2-b]pyrrole-1-carbonyl)-2-methyl-propyl]-2-methylamino-propionamide] | < 0.1 µM | < 0.1 µM | < 0.1 µM |
| CNC(=O)N1C[C@H](COc2ccc(F)c(F)c2)[C@@H]2[C@H]1CCN2C(=O)[C@@H](NC(=O)[C@H](C)NC)C(C)(C)C [Example 62, 3-(3,4-Difluoro-phenoxymethyl)-4-[3,3-dimethyl-2-(2-methylamino-propionylamino)-butyryl]-hexahydro-pyrrolo[3,2-b]pyrrole-1-carboxylic acid methylamide] | < 0.1 µM | < 0.1 µM | < 0.1 µM |
| CN[C@@H](C)C(=O)N[C@H](C(=O)N1CC[C@@H]2[C@H]1[C@@H](Oc1ccc(F)c(F)c1)CN2C1CCOCC1)C(C)(C)C [Example 15, N-{1-[6-(3,4-Difluoro-phenoxy)-4-(tetrahydro-pyran-4-yl)-hexahydro-pyrrolo[3,2-b]pyrrole-1-carbonyl]-2,2-dimethyl-propyl}-2-methylamino-propionamide] | < 0.1 µM | < 0.1 µM | 0.1 to 1 µM |
| CN[C@@H](C)C(=O)N[C@H](C(=O)N1CC[C@H]2NC[C@H](OCc3ccc(F)cc3)[C@H]21)C(C)(C)C [Example 35, N-{1-[6-(4-Fluoro-benzyloxy)-hexahydro-pyrrolo[3,2-b]pyrrole-1-carbonyl]-2,2-dimethyl-propyl}-2-methylamino-propionamide ester] | < 0.1 µM | < 0.1 µM | 0.1 to 1 µM |
| CN[C@@H](C)C(=O)N[C@H](C(=O)N1CC[C@@H]2[C@H]1[C@@H](Oc1ccc(F)c(F)c1)CN2C(=O)CC(C)C)C(C)(C)C [Example 22, N-{1-[6-(3,4-Difluoro-phenoxy)-4-(3-methyl-butyryl)-hexahydro-pyrrolo[3,2-b]pyrrole-1-carbonyl]-2,2-dimethyl-propyl}-2-methylamino-propionamide] | < 0.1 µM | < 0.1 µM | < 0.1 µM |
| CN[C@@H](C)C(=O)N[C@H](C(=O)N1CC[C@@H]2[C@H]1[C@@H](OCc1ccc(F)cc1)CN2C(=O)OC(C)(C)C)C(C)(C)C [Example 34, 4-[3,3-Dimethyl-2-(2-methylamino-propionylamino)-butyryl]-3-(4-fluoro-benzyloxy)-hexahydro-pyrrolo[3,2-b]pyrrole-1-carboxylic acid tert-butyl ester] | < 0.1 µM | < 0.1 µM | < 0.1 µM |
| CN[C@@H](C)C(=O)N[C@H](C(=O)N1CC[C@@H]2[C@H]1[C@@H](COc1ccc(F)c(F)c1)CN2C(=O)CC(C)C)C(C)(C)C [Example 71, N-{1-[6-(3,4-Difluoro-phenoxymethyl)-4-(3-methyl-butyryl)-hexahydro-pyrrolo[3,2-b]pyrrole-1-carbonyl]-2,2-dimethyl-propyl}-2-methylamino propionamide] | < 0.1 µM | < 0.1 µM | < 0.1 µM |
| CN[C@@H](C)C(=O)N[C@H](C(=O)N1CC[C@@H]2[C@H]1[C@@H](OC(=O)Nc1ccc3ccccc3c1)CN2C(=O)NC(C)C)C(C)(C)C [Example 51, Naphthalen-2-yl-carbamic acid 4-[3,3-dimethyl-2-(2-methylamino-propionylamino)-butyryl]-1-isopropylcarbamoyl-octahydro-pyrrolo[3,2-b]pyrrol-3-yl ester] | < 0.1 µM | 1 to 10 µM | 0.1 to 1 µM |
